Like-named read-outs stand apart in the source and are kept apart here.
Tests used:
[1] = system: REL-A (p65) nuclear translocation in HeLa cells; assay: NIK RelA Translocation Assay (classical NF-kB signaling); type: cell-based; conditions: Homo sapiens
Procedure: (2) A second set of cell assay was used to define the selectivity of NIK inhibitors toward inhibition of classical vs. non-classical NF-kB signaling and rely on quantification of the nuclear translocation of p52 (NF-kB2) and REL-A (p65) using high content cellular imaging. For the p52 (non-classical NF-kB signaling) nuclear translocation assay, HeLa cells were treated with different concentrations of compounds (0.2% DMSO final) in medium containing 10% fetal bovine serum and then stimulated with 100 ng/mL of an anti-lymphotoxin beta receptor antibody (R&D Systems) for 5 hours. In the REL-A nuclear translocation assay, HeLa cells were incubated with compounds (0.2% DMSO final) for 4.5 hours in medium containing 10% fetal bovine serum before stimulating them with 10 ng/mL tumor necrosis factor (TNF)-α (R&D Systems) for 30 minutes. Cells were fixed with 4% paraformaldehyde, permeabilized by adding 0.1% Triton X-100 in phosphate buffered saline, and then incubated with either 2 ug/mL anti-p52 antibody (Millipore) or 400 ng/mL anti-REL-A (p65) antibody (Santa Cruz Biotechnology). Finally, the cells were incubated with an Alexa488-labeled secondary antibody (Invitrogen) and DRAQ5 DNA stain (Biostatus). Imaging was carried out using an Opera reader (Perkin Elmer) and data are analyzed with the aid of Acapella software (Perkin Elmer). The p52 or REL-A translocation into the nucleus was quantified by the ratio of the nuclear to cytoplasmic signal intensity. The concentration of inhibitor required for 50% inhibition (IC50 values) in these cell assays were derived from the plots of signal vs. inhibitor concentration. The compounds in listed in Table 1 have the corresponding inhibitory value (IC50 in micromolar) for NIK p52 Translocation Assay (values for compounds are presented in the same order as found in Table 1, and “na” means the data for this assay is to be determined): 0.326, 0.33, na, na, na, 0.218, 0.07, na, na, na, 0.129, 7.6, 0.077, 3.4, na, 0.518, na, 0.059, 0.514, 0.127, na, na, 0.010, na, na, 0.313, 0.275, na, 0.0727, na, na, na, na, na, na, 0.194, na, 6.4, 0.22, 0.346, na, na, na and na, na, na, na, na, na, 0.447, na, 0.089, 0.479, 0.489, 0.243, 0.747, 1, na, 1.9, 0.552, 2.1, na. na, na, na, na and na.
The compounds in listed in Table 1 has the corresponding inhibitory value (IC50 in micromolar) for NIK RelA Translocation Assay (values for compounds are presented in the same order as found in Table 1): 0.326, 0.33, na, na, na, 0.218, 0.07, na, na, na, na, na, 0.129, 7.6, 0.077, 3.4, na, 0.518, na, 0.059, 0.514, 0.127, na, na, 0.010, na, na, 0.313, 0.275, na, na, 0.0727, na, na, na, na, na, na, 0.194, na, 6.4, 0.22, 0.346, na, na, na, na, na, na, na, na, na, 0.447, na, 0.089, 0.479, 0.489, 0.243, 0.747, 1, na, 1.9, 0.552, 2.1, na, na, na, na, na and na.

[2] = system: NF-kB signaling through NIK in human embryonic kidney 293 cells; assay: 293-NIK NF-kB-Luciferase reporter assay; type: cell-based
Outline: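 HEK293 cells stably carrying tetracycline-inducible NIK plus NF-kB (ELAM-1 element) firefly luciferase and constitutive TK-Renilla viability reporter. Compounds (0.2% DMSO) incubated 24 h with 1 ug/mL doxycycline; Dual Glo luminescence read, IC50 from firefly signal.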

[3] = system: p52 (NF-kB2) nuclear translocation in HeLa cells; assay: NIK p52 Translocation Assay (non-classical NF-kB signaling); type: cell-based; conditions: Homo sapiens
Outline: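 HeLa cells in 10% FBS medium were exposed to compound (0.2% DMSO final) and stimulated with 100 ng/mL anti-lymphotoxin β receptor antibody for 5 h. Fixed cells were immunostained for p52 with DRAQ5 counterstain and imaged by high-content imaging. IC50 from nuclear/cytoplasmic p52 signal ratio vs concentration.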

[4] = target: T1, nuclear factor-kappa B (NF-kB)-inducing kinase (NIK) (Homo sapiens, UniProt Q99558); assay: NIK Enzyme Inhibition Assay (Transcreener ADP assay); type: biochemical
T1 construct: made in house; host or cells: baculovirus-infected insect cells
T1 sequence (Q99558 whole entry): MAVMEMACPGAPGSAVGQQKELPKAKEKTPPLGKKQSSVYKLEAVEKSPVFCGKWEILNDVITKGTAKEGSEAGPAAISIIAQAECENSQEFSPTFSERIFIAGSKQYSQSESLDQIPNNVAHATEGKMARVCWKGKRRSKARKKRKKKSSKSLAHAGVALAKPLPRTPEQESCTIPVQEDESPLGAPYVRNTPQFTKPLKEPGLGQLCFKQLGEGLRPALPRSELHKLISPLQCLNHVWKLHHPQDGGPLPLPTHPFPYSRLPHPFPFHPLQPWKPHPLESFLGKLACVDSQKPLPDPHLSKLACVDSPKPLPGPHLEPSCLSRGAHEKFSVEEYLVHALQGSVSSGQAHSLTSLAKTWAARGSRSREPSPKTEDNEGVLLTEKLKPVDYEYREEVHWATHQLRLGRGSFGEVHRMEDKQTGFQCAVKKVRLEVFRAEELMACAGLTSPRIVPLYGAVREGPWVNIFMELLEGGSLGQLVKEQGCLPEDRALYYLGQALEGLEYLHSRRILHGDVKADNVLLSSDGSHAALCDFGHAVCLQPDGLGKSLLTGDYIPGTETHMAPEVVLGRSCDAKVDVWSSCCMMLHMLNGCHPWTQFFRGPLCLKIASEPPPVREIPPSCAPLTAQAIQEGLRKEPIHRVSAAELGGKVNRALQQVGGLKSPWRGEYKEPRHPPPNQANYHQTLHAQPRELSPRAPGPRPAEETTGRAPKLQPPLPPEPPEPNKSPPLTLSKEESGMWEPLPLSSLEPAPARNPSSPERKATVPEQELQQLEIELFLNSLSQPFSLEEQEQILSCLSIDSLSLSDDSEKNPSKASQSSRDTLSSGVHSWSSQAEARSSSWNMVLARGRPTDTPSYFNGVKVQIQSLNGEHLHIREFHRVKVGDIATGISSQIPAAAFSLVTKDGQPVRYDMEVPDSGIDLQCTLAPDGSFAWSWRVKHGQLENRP

[5] = system: human embryonic kidney 293 cells; assay: 293-NIK TK Renilla Luciferase reporter (general measure of cell viability); type: cell-based
Excerpt: (1) The first assay was used to profile whether a test compound can inhibit the NF-kB signally through NIK inhibition without affecting cell viability. In this assay, human embryonic kidney 293 cells was stably transfected with a tetracycline-inducible NIK DNA construct containing a cytomegalovirus promoter plus two reporter DNA constructs. One reporter encoded firefly luciferase under the control of three repeats of an NF-kB response element from the ELAM-1 gene and reflects the level of NIK activity in the cells, whereas the other reporter constitutively expressed Renilla luciferase under the control of the herpes simplex virus thymidine kinase promoter and served as a general measure of cell viability. Cells were incubated with different concentrations of compounds (0.2% DMSO final) in medium containing 1 ug/mL doxycycline and 10% tet-system approved fetal bovine serum (Clontech) for 24 hours, after which the reporters' signals were detected using the Dual Glo luciferase detection system (Promega) according to the vendor's protocol. The compounds listed in Table 1 have the corresponding inhibitory value (IC50 in micromolar) for 293-NIK NF-kB-Luciferase activity (values for compounds are presented in the same order as found in Table 1): na, 0.059, na, na, na, 0.105, 0.027, na, 20, 1.2, na, 1.8, 0.0231, 0.879, 0.0361, 0.582, na, 0.142, na, 0.403, 0.059, 0.0331, na, na, 0.0573, 1.5, na, na, 0.0722, na, na, 0.589, 12.7, 3.7, 14.9, na, 0.707, 1, 0.0311, 0.332, 0.309, 0.0142, 0.051, 2.8, 0.129, na, na, 1.5, na, na, na, 1.3, 0.062, 20, 0.31, 0.104, 0.091, 0.037, 0.085, 0.279, na, 0.305, 0.064, 0.332, 0.133, 0.168, 0.217, 0.553, na and na.
The compounds in listed in Table 1 have the corresponding inhibitory value (IC50 in micromolar) for 293-NIK TK Renilla Luciferase activity: (values for compounds are presented in the same order as found in Table 1): 6.4, 3.6, 20, na, 1.6, 9.3, 18.5, na, na, 2.6, na, na, na, na, na, na, na, na, na, na, na, na, na, na, na, na, na, na, na, na, na, na, na, na, na, na, na, na, na, na, na, na, na, na, na, na, na, >20, na, na, na, 20, >20, 17, 1.3, 15.6, 0.967, 2.7, 11.2, 5.1, na, 20, 20, 20, 20, 20, 17.6, 20, na and na.

[6] = HeLa, comparative data, Tables 16A-16D, read-out: NIK RelA Translocation (IC50)
[7] = HEK293, comparative data, Tables 16A-16D, read-out: 293-NIK NF-kB-Luciferase (IC50)
[8] = HeLa, comparative data, Tables 16A-16D, read-out: NIK p52 Translocation (IC50)
[9] = comparative data, Tables 16A-16D, read-out: NIK ADP (Ki)
[10] = HEK293, comparative data, Tables 16A-16D, read-out: 293-NIK TK Renilla Luciferase (IC50)
[11] = HeLa cells, compounds 4.5 hours, 10 ng/mL TNF-α 30 minutes, read-out: inhibitory value (IC50) for NIK RelA Translocation Assay
[12] = HEK293, 293 cells with tetracycline-inducible NIK, 1 ug/mL doxycycline, 24 hours, read-out: inhibitory value (IC50) for 293-NIK NF-kB-Luciferase activity
[13] = HeLa cells, 100 ng/mL anti-lymphotoxin beta receptor antibody, 5 hours, read-out: inhibitory value (IC50) for NIK p52 Translocation Assay
[14] = purified NIK 0.2-1 nM, 10 uM ATP, fluorescence polarization, Morrison's quadratic equation, read-out: inhibitory value (Ki) for NIK
[15] = HEK293, 293 cells, constitutive Renilla luciferase, 24 hours, read-out: inhibitory value (IC50) for 293-NIK TK Renilla Luciferase activity

SMILES	IC50 [1, 6] [nM]	IC50 [3, 8] [nM]	Ki [4, 9] [nM]	IC50 [1, 11] [nM]	Ki [4, 14] [nM]	IC50 [2, 7] [nM]	IC50 [5, 10] [nM]	IC50 [2, 12] [nM]	IC50 [3, 13] [nM]	IC50 [5, 15] [nM]
CN(C)C(=O)c1nn(-c2ccnc(N)n2)c2cc(C#CC(C)(O)c3ncco3)ccc12 (stereo not drawn) [1-(2-aminopyrimidin-4-yl)-6-(3-hydroxy-3-(oxazol-2-yl)but-1-ynyl)-N,N-dimethyl-1H-indazole-3-carboxamide]	> 20000	346	0.2	–	–	51	583	–	–	–
CC(O)(C#Cc1ccc2cnn(-c3ccnc(N)n3)c2c1)c1ncco1 (stereo not drawn) [4-(1-(2-aminopyrimidin-4-yl)-1H-indazol-6-yl)-2-(oxazol-2-yl)but-3-yn-2-ol]	> 20000	77	0.3	–	–	36	514	–	–	–
Cc1nn(-c2ccnc(N)n2)c2cc(C#CC(C)(O)c3nccs3)ccc12 (stereo not drawn) [4-(1-(2-aminopyrimidin-4-yl)-3-methyl-1H-indazol-6-yl)-2-(thiazol-2-yl)but-3-yn-2-ol]	> 20000	222	0.1	–	–	11	1200	–	–	–
CC(O)(C#Cc1ccc2ncn(-c3ccnc(N)n3)c2c1)c1nccs1 (stereo not drawn) [Example T1-7, 4-(1-(2-aminopyrimidin-4-yl)-1H-benzo[d]imidazol-6-yl)-2-(thiazol-2-yl)but-3-yn-2-ol]	–	–	–	70	0.28	–	–	27	70	18500
Cc1nn(-c2ccnc(N)n2)c2cc(C#C[C@@](C)(O)c3nccs3)c(F)cc12 [Example T1-55, (R)-4-(1-(2-aminopyrimidin-4-yl)-5-fluoro-3-methyl-1H-indazol-6-yl)-2-(thiazol-2-yl) but-3-yn-2-ol]	–	–	–	89	0.2	–	–	310	243	1300
Cc1cnc(C(C)(O)C#Cc2ccc3c(C)nn(-c4ccnc(N)n4)c3c2)s1 (stereo not drawn) [Example T1-56, 4-(1-(2-aminopyrimidin-4-yl)-3-methyl-1H-indazol-6-yl)-2-(5-methylthiazol-2-yl)but-3-yn-2-ol]	–	–	–	479	1.6	–	–	104	747	15600

More lines, main results first:

IC50 [1, 6] [nM]	IC50 [3, 8] [nM]	Ki [4, 9] [nM]	IC50 [1, 11] [nM]	Ki [4, 14] [nM]	SMILES	IC50 [2, 7] [nM]	IC50 [5, 10] [nM]	IC50 [2, 12] [nM]	IC50 [3, 13] [nM]	IC50 [5, 15] [nM]
> 20000	70	0.3	–	–	CC(O)(C#Cc1ccc2ncn(-c3ccnc(N)n3)c2c1)c1nccs1 (stereo not drawn) [4-(1-(2-aminopyrimidin-4-yl)-1H-benzo[d]imidazol-6-yl)-2-(thiazol-2-yl)but-3-yn-2-ol]	27	4900	–	–	–
> 20000	862	2.7	–	–	CC(O)(C#Cc1ccc2c(c1)N(c1ccnc(N)n1)CC2)c1nccs1 (stereo not drawn) [4-(1-(2-aminopyrimidin-4-yl)indolin-6-yl)-2-(thiazol-2-yl)but-3-yn-2-ol, reference compound]	126	3900	–	–	–
–	–	–	218	0.14	CC(O)(C#Cc1ccc2cnn(-c3nc(N)ncc3Cl)c2c1)c1nccs1 (stereo not drawn) [Example T1-6, 4-(1-(2-amino-5-chloro-pyrimidin-4-yl)-1H-indazol-6-yl)-2-(thiazol-2-yl)but-3-yn-2-ol]	–	–	105	218	9300
–	–	–	447	0.4	Cc1nc2ccc(C#CC(C)(O)c3nccs3)cc2n1-c1ncnc(N)n1 (stereo not drawn) [Example T1-53, 4-(1-(4-amino-1,3,5-triazin-2-yl)-2-methyl-1H-benzo[d]imidazol-6-yl)-2-(thiazol-2-yl)but-3-yn-2-ol]	–	–	62	479	> 20000
–	–	–	489	2	Cc1nc(C(C)(O)C#Cc2ccc3c(C)nn(-c4ccnc(N)n4)c3c2)no1 (stereo not drawn) [Example T1-57, 4-(1-(2-aminopyrimidin-4-yl)-3-methyl-1H-indazol-6-yl)-2-(5-methyl-1,2,4-oxadiazol-3-yl)but-3-yn-2-ol]	–	–	91	1000	967
–	–	–	747	0.49	Cc1cc(C(C)(O)C#Cc2ccc3c(C(=O)N(C)C)nn(-c4ccnc(N)n4)c3c2)no1 (stereo not drawn) [Example T1-59, 1-(2-aminopyrimidin-4-yl)-6-(3-hydroxy-3-(5-methyl-isoxazol-3-yl)but-1-ynyl)-N,N-dimethyl-1H-indazole-3-carboxamide]	–	–	85	1900	11200
